Measurements as given in publication PMC11124822, “Discovery and Anticancer Screening of Novel Oxindole-Based Derivative Bearing Pyridyl Group as Potent and Selective Dual FLT3/CDK2 Kinase Inhibitor” (Pharmaceuticals, 2024).
Read-outs that look alike come from different tables or passages of the source.

What was measured:
Experiment in all cases: NCI-60 antiproliferative screen (SRB)
HOP-62 = format: cell-based, human; settings: 48 h
SK-MEL-5 = format: cell-based, human
RXF 393 = format: cell-based, human; settings: 48 h
MOLT-4 = format: cell-based; settings: Homo sapiens, 48 h
HOP-92 = format: cell-based, human; settings: 48 h
SK-OV-3 = format: cell-based, human; settings: 48 h
T-47D = format: cell-based, human; settings: 48 h
LOX IMVI = format: cell-based, human; settings: 48 h; for CC50: read-out: LC50 (the source's name)
SK-MEL-28 = format: cell-based, human
KM12 = format: cell-based, human; settings: 48 h
NCI-H226 = format: cell-based, human; settings: 48 h
SN12C = format: cell-based, human; settings: 48 h
MDA-MB-231 = format: cell-based, human; settings: 48 h
TK-10 = format: cell-based, human; settings: 48 h
CAKI-1 = format: cell-based, human; settings: Homo sapiens; 10 µM single dose, 48 h; CAKI-1 (Renal); read-out: Growth inhibition (%)

With `O=C1Nc2cc(Cl)ccc2C1=Cc1ccc(OCc2cccnc2)cc1` (mixture of isomers) [Compound 5l, (E/Z)-6-Chloro-3-[4-(pyridin-3-ylmethoxy)benzylidene] indolin-2-one] the inhibition at 10 µM (HOP-62; Homo sapiens, 10 µM single dose, HOP-62 (NSCLC), read-out: Growth inhibition (%)) was 72.9%, the GI50 (HOP-62; Homo sapiens, five-dose, HOP-62) was 12.9 µM and the CC50 (HOP-62; Homo sapiens, five-dose, HOP-62, read-out: LC50 (the source's name)) was > 100 µM. The TGI (HOP-62; five-dose, HOP-62) was >100 µM, the CC50 (SK-MEL-5; Homo sapiens, SK-MEL-5, 48 h, five-dose, SK-MEL-5, read-out: LC50 (the source's name)) was 65.6 µM and the inhibition at 10 µM (SK-MEL-5; Homo sapiens, 10 µM single dose, 48 h, SK-MEL-5 (Melanoma), read-out: Growth inhibition (%)) was 153%. The GI50 (SK-MEL-5; Homo sapiens, five-dose, 48 h, SK-MEL-5) was 3.46 µM, the CC50 (SK-MEL-5; five-dose, 48 h, SK-MEL-5, read-out: LC50 (the source's name)) was 71.5 µM and the GI50 (RXF 393; Homo sapiens, RXF 393, five-dose, RXF393) was 9.07 µM. The CC50 (RXF 393; Homo sapiens, RXF 393, five-dose, RXF393, read-out: LC50 (the source's name)) was > 100 µM, the inhibition at 10 µM (RXF 393; Homo sapiens, 10 µM single dose, RXF 393 (Renal), read-out: Growth inhibition (%)) was 63.4% and the TGI (RXF 393; five-dose, RXF393) was 90.20 µM. For the same molecule, the inhibition at 10 µM (MOLT-4; 10 µM single dose, MOLT-4 (Leukemia), read-out: Growth inhibition (%)) was 98.1%, the GI50 (MOLT-4; five-dose, MOLT-4) was 2.99 µM and the CC50 (MOLT-4; five-dose, MOLT-4, read-out: LC50 (the source's name)) was > 100 µM. The inhibition at 10 µM (HOP-92; Homo sapiens, 10 µM single dose, HOP-92 (NSCLC), read-out: Growth inhibition (%)) was 56.1%, the GI50 (HOP-92; Homo sapiens, five-dose, HOP-92) was 6.51 µM and the TGI (HOP-92; five-dose, HOP-92) was 62.70 µM. For the same molecule, the inhibition at 10 µM (SK-OV-3; Homo sapiens, 10 µM single dose, SK-OV-3 (Ovarian), read-out: Growth inhibition (%)) was 32.2%, the GI50 (SK-OV-3; Homo sapiens, five-dose, SK-OV-3) was 71.8 µM and the CC50 (SK-OV-3; Homo sapiens, five-dose, SK-OV-3, read-out: LC50 (the source's name)) was > 100 µM. For the same molecule, the TGI (SK-OV-3; five-dose, SK-OV-3) was >100 µM, the inhibition at 10 µM (T-47D; Homo sapiens, T47D, 10 µM single dose, T-47D (Breast), read-out: Growth inhibition (%)) was 69% and the GI50 (T-47D; Homo sapiens, T47D, five-dose, T-47D) was 3.18 µM. For the same molecule, the CC50 (T-47D; Homo sapiens, T47D, five-dose, T-47D, read-out: LC50 (the source's name)) was > 100 µM, the TGI (T-47D; five-dose, T-47D) was >100 µM and the CC50 (LOX IMVI; Homo sapiens, LOX IMVI, five-dose, LOX IMVI) was 96.9 µM. It also gave an inhibition at 10 µM (LOX IMVI; Homo sapiens, 10 µM single dose, LOX IMVI (Melanoma), read-out: Growth inhibition (%)) of 91%, a GI50 (LOX IMVI; Homo sapiens, five-dose, LOX IMVI) of 4.7 µM and a TGI (LOX IMVI; five-dose, LOX IMVI) of 24.80 µM. For the same molecule, the CC50 (LOX IMVI; five-dose, LOX IMVI) was 96.6 µM, the CC50 (SK-MEL-28; Homo sapiens, SK-MEL-28, 48 h, five-dose, SK-MEL-28, read-out: LC50 (the source's name)) was 71.5 µM and the inhibition at 10 µM (SK-MEL-28; Homo sapiens, 10 µM single dose, 48 h, SK-MEL-28 (Melanoma), read-out: Growth inhibition (%)) was 46.3%. The GI50 (SK-MEL-28; Homo sapiens, five-dose, 48 h, SK-MEL-28) was 12.3 µM, the TGI (SK-MEL-28; five-dose, 48 h, SK-MEL-28) was 28.50 µM and the CC50 (SK-MEL-28; five-dose, 48 h, SK-MEL-28, read-out: LC50 (the source's name)) was 65.6 µM. The inhibition at 10 µM (KM12; Homo sapiens, 10 µM single dose, KM12 (Colon), read-out: Growth inhibition (%)) was 99.7%, the GI50 (KM12; Homo sapiens, five-dose, KM12) was 5.3 µM and the TGI (KM12; five-dose, KM12) was >100 µM. It also gave an inhibition at 10 µM (NCI-H226; Homo sapiens, 10 µM single dose, NCI-H226 (NSCLC), read-out: Growth inhibition (%)) of 62.9%, a GI50 (NCI-H226; Homo sapiens, five-dose, NCI-H226) of 9 µM and a TGI (NCI-H226; five-dose, NCI-H226) of 70.00 µM. For the same molecule, the inhibition at 10 µM (SN12C; Homo sapiens, 10 µM single dose, SN12C (Renal), read-out: Growth inhibition (%)) was 66.1%, the GI50 (SN12C; Homo sapiens, five-dose, SN12C) was 9.74 µM and the CC50 (SN12C; Homo sapiens, five-dose, SN12C, read-out: LC50 (the source's name)) was > 100 µM. For the same molecule, the TGI (SN12C; five-dose, SN12C) was 66.60 µM, the inhibition at 10 µM (MDA-MB-231; Homo sapiens, 10 µM single dose, MDA-MB-231 (Breast), read-out: Growth inhibition (%)) was 67.5% and the GI50 (MDA-MB-231; Homo sapiens, five-dose, MDA-MB-231/ATCC) was 15.8 µM. The CC50 (MDA-MB-231; Homo sapiens, five-dose, MDA-MB-231/ATCC, read-out: LC50 (the source's name)) was > 100 µM, the TGI (MDA-MB-231; five-dose, MDA-MB-231/ATCC) was >100 µM and the inhibition at 10 µM (TK-10; Homo sapiens, 10 µM single dose, TK-10 (Renal), read-out: Growth inhibition (%)) was 29.4%. For the same molecule, the GI50 (TK-10; Homo sapiens, five-dose, TK-10) was 77.1 µM, the CC50 (TK-10; Homo sapiens, five-dose, TK-10, read-out: LC50 (the source's name)) was > 100 µM and the TGI (TK-10; five-dose, TK-10) was >100 µM. The inhibition at 10 µM (CAKI-1) was 69.8%.
